Source: patent publication US20030171333A1, “Pharmaceutical composition containing at least a polymer combined with or conjugated to at least a phenylalkylcarboxylic acid salt, conjugate polymers and uses thereof” (priority 2000, published 2003)

Assays:
MCF-7ras cells [1] = assay: Cell cycle analysis (BrdU/propidium iodide, FACScan); assay type: cell-based, human; conditions: NaPA alone 10 mM, 48 hours
Protocol: To analyze the cell cycle, the cells were seeded in plates in a proportion of […] and per well in DMEM medium supplemented with 2% of FCS. After culturing for 24 hours, the various tested products were added.
After 72 hours, the MCF-7ras cells were incubated in the presence of BrdU for 4 hours. The cells were then washed with PBS buffer and fixed with 70% ethanol. […] The cells were then centrifuged and resuspended in a staining solution containing […] of propidium iodide (Boehringer Mannheim) for 10 min. The stained cells are then analyzed with a FACScan (Coulter).
Analysis of the distribution of MCF-7ras cells treated with NaPA alone (10 mM), the dextran LS4 DMCB alone (18.5 mM) and a combination thereof (NaPA: 10 mM; LS4 DMCB: 18.5 mM) in the various phases of the cell cycle was carried out after 48 hours of treatment.

MCF-7ras cells [2] = assay: MTT growth assay with isobolic combination index; assay type: cell-based, human; conditions: for NaPA Bc / NaPA Be: used alone
Protocol: (§1) Cells sampled in the exponential growth phase are seeded in 96-well plates in a proportion of 5 000 cells per 200 μl, this being in a DMEM medium supplemented with 2% of FCS, 1% of glutamine and 1% of sodium pyruvate. After incubation for 24 hours, the various concentrations of products to be tested are added in a proportion of 3 wells per concentration. A negative control is prepared without the addition of product.
(§2) After incubation for 72 hours, the cells are washed twice with a buffered saline solution and then 100 μl of MTT are added to each well. After 4 hours of incubation, 100 μl of DMSO are added to the wells before reading the plate 570 nm using a plate reader.
The percentage inhibition I is determined using the equation previously described. The net increase in untreated cells this time corresponds to the cell density contained in the control wells minus that of D0. As regards the net increase in treated cells, it corresponds to the treated cell density at D72 subtracted with that of D0.
MCF-7 cells transfected with the Ha-ras oncogene (MCF-7ras cells) were cultured in DMEM medium supplemented with 10% of FCS, 2 mM of L-glutamine, 1 mM of sodium pyruvate, 50 units/ml of penicillin and 50 μg/ml of streptomycin, at a temperature of 37° C. and in a humid atmosphere with 5% of CO2.
This was carried out in 96-well microplates under the same conditions as those given above in example 17.
In this example, the effects of the following products, alone or in combination, at various concentrations, were studied on MCF-7ras cell proliferation after incubation for 72 hours:
The percentage inhibition I was calculated as described above in example 17.
The effect of synergy between the dextrans DMCB7 or LS4 DMCB or LS17 and NaPA was calculated using the following isobolic equation (T. Mosmann, J. Immunol. Methods, 1983, 65, 55-63): […]
in which Ac and Bc correspond, respectively, to the concentration of dextran derivative and NaPA used in combination, and Ae and Be correspond to the concentration of each of these two compounds used alone and inducing the same effect; D is the combination index and Dm is the mean combination index. When D or Dm is less than 1, then the combination of the two products has a synergistic effect.
When the concentration of dextran derivative used alone (Ae), making it possible to obtain a percentage inhibition close to that which is obtained when the dextran derivative is used in combination with NaPA, is very high and such that it cannot be determined precisely, then the ratio Ac/Ae tends toward zero and, consequently, D=Bc/Be. Such concentrations of dextran derivatives (Ae) have been indicated in tables II, III and IV below as simply being greater than the concentration given for Ac.
Each experiment was repeated 3 times so as to be able to calculate the statistical significance (P) of the combination index (D or Dm) compared to the additive combination index for the effects (D=1) using the Student's t test.

MCF-7 cells [3] = assay: MTT growth assay; assay type: cell-based, human
Protocol: MTT (3-(4,5-dimethylthiazol-2-yl)-2,5-diphenyl-tetrazolium bromide) has the property that it can be reduced in alkaline medium, thus giving a colored compound, blue formazan. Mitochondria, by virtue of their membrane-bound dehydrogenases, are capable of carrying out this reduction. As a result, the number of functional mitochondria, and indirectly the number of live cells, can be quantified as a function of the intensity of the coloration.
as §1, §2
The percentage inhibition I is determined using the equation previously described. The net increase in untreated cells this time corresponds to the cell density contained in the control wells minus that of D0. […]

MCF-7ras tumors = assay: Antitumor effect in vivo, tumors induced by inoculation of MCF-7ras cells in athymic mice; conditions: NaPA 40 mg/kg, injected twice a week, after 7 weeks of treatment; P=0.049
Protocol: Fifty 3-week-old female athymic mice from the Laboratoire Harlan (Gannat, France) were kept in a temperature-controlled room and subjected to a cycle of light/dark alternating every 12 hours.
Cells of the MCF-7ras tumor line as described above in example 17 were cultured in a DMEM medium supplemented with 10% of FCS until 80% confluency was reached. After centrifugation, the cells were resuspended in DMEM supplemented with 10% of FCS.
Each mouse was then inoculated subcutaneously with these cells, in the proximity of the mammary gland, in a proportion of 5×10^6 cells per animal.
The volume of the tumors (V) was calculated in the following way:
V=(4/3)π(r1)^2)r2); r1 representing the smallest radius of the tumor and r2 the largest radius of the tumor.
Four weeks after inoculation, solutions of NaPA (40 mg/kg) or of dextran LS4 DMCB (150 mg/kg) or of a combination of NaPA (40 mg/kg) and dextran LS4 DMCB (150 mg/kg), prepared in 0.1 ml of sodium chloride, were injected into the mice, twice a week, for 7 weeks for the solutions of NaPA alone and of dextran LS4 DMCB alone. The injections of the combination of NaPA and dextran LS4 DMCB were stopped after six weeks.
For each solution tested, 10 mice chosen randomly from the 50 mice initially inoculated were subjected to the treatment. […]
The volume of each tumor was measured once a week. […]

MCF-7 cells [4] = assay: Cell growth assay, cell counting on Coulter Counter ZM; assay type: cell-based, human
Protocol: The MCF-7 tumor line is a line of estrogen-sensitive epithelial cells originating from pleural metastases of an infiltrating ductule breast adenocarcinoma. They are cultured in Dulbecco's Modified Eagle Medium (DMEM), supplemented with 10% of fetal calf serum (FCS), 1% of glutamine and 1% of sodium pyruvate. The cells are stored in cryotubes in frozen form in liquid nitrogen. The cryotubes are partially thawed in a water bath at 37° C. 2 ml of complete culture medium are added and the cell suspension is then mixed. Culture flasks (COSTAR® T25) are prepared with culture medium beforehand. The cell suspension is added to the flasks and placed in an incubator at 37° C. with 5% of CO2.
Cells sampled in the exponential growth phase are seeded in 24-well plates in a proportion of 15000 cells per ml and per well, this being in a DMEM medium supplemented with 10% FCS, 1% of sodium pyruvate and 1% of glutamine.
After incubation for 24 hours, the various concentrations of products to be tested are added in the proportion of 4 wells per concentration. These products are diluted in a DMEM medium containing 2% of FCS, 1% of sodium pyruvate and 1% of glutamine, so as to obtain the desired concentrations. The negative control is prepared without the addition of product.
After incubation for 72 hours, the cells are detached and then counted using a Coulter Counter ZM® set on the parameters predefined for MCF-7 cells. The diameter (threshold) of detection is 5 for an attenuation of 32. The latter determines the number of particles of desired diameter contained in the sample. By taking into account the dilution made, the number of cells per ml of initial cell suspension is determined from this value.
%I=[1−(net increase in treated cells/net increase in untreated cells)]×100
The net increase in untreated cells corresponds to the number of cells contained in the control wells (DMEM medium containing 2% FCS) subtracted with the number of cells at D0 (number of cells at the time the products are added to the wells). […]

[5] = test system: 1205LU human melanoma cells; assay: Antitumor effect in vivo, 1205LU human melanoma in athymic mice
Protocol: A group of 14 female athymic mice were subcutaneously inoculated, according to the protocol described above in example 17, with 1205LU human melanoma cells, in a proportion of 10^6 cells per animal.
For a period of five weeks, and at a rate of twice a week, a first group of 4 mice were given an injection of 100 μl of sodium chloride so as to serve as a control group, a second group of 4 mice were given an injection of LS17-NaPAC at a dose of 60 mg/kg/100 μl, and a third group of 6 mice were given an injection of NaPA at a dose of 6.9 mg/kg/100 μl.
The volume of each tumor was measured before the first injection and then once a week for the five weeks of treatment. It was calculated according to the equation defined above in example 17.
Furthermore, at the end of treatment, the mice were sacrificed so as to be able to determine the mass of each of the tumors. […] The treatment with NaPA alone at a dose of 6.9 mg/kg therefore appears to be nonsignificant, contrary to that with LS17-NaPAC at an equivalent dose of 60 mg/kg (p<0.005).

HUVEC cells = assay: HUVEC cell proliferation (MTT), antiangiogenic activity in vitro; assay type: cell-based; conditions: tested alone at concentrations equivalent to LS17-NaPAC, 72 hours
Protocol: Immortalized healthy endothelial cells (HUVEC) were seeded in a proportion of 10000 cells per well and per 100 μl of DMEM medium supplemented with 2% of FCS, in 96-well microplates (COSTAR®). The number of cells was determined after having prepared a standard range.
After culturing for 24 hours, the HUVEC cells were incubated with the various concentrations of the products to be tested prepared in DMEM medium containing 2% of FCS. The absorbance at the time the products were added was measured and compared to the standard range, so as to determine the number of cells.
After culturing for 72 hours, the cell supernatant is removed and 1 wash with PBS buffer containing calcium and magnesium is carried out. 100 μl of a solution of MTT is then added and the cells are incubated for 4 hours. After 4 hours of incubation, the MTT is removed and the crystals which have formed are dissolved with DMSO for 10 minutes with agitation. Absorbance is measured at 570 nm.
The concentration of 10 μg/ml of LS17-NaPAC tested is compared to a concentration of NaPA alone of 1.3216 μg/ml or to a concentration of 8.7 μg/ml of LS17-DMCB alone.

O=C([O-])Cc1ccccc1.[Na+] [NaPA, sodium phenylacetate]
distribution of cells in the phases of the cell cycle (MCF-7ras cells [1]): blocking of the cells in the G0/G1 phase | inhibition of MCF-7ras cell proliferation (MCF-7ras cells [2]; NaPA alone at 30 and 40 mM, 72 h): 70% | NaPA Bc (MCF-7ras cells [2]; same effect as DMCB7 0.05 mM + NaPA 5 mM (10% inhibition)): 1 mM | NaPA Bc (MCF-7ras cells [2]; same effect as DMCB7 0.3 mM + NaPA 5 mM (20% inhibition)): 5 mM | NaPA Bc (MCF-7ras cells [2]; same effect as DMCB7 1 mM + NaPA 5 mM (38% inhibition)): 10.7 mM | NaPA Bc (MCF-7ras cells [2]; same effect as DMCB7 1.27 mM + NaPA 5 mM (42% inhibition)): 12 mM | NaPA Bc (MCF-7ras cells [2]; same effect as DMCB7 1.7 mM + NaPA 5 mM (45% inhibition)): 13 mM | NaPA Bc (MCF-7ras cells [2]; same effect as DMCB7 2 mM + NaPA 5 mM (50% inhibition)): 20 mM | NaPA Bc (MCF-7ras cells [2]; same effect as DMCB7 5 mM + NaPA 5 mM (60% inhibition)): 29 mM | NaPA Bc (MCF-7ras cells [2]; same effect as DMCB7 7 mM + NaPA 5 mM (70% inhibition)): 36 mM | NaPA Bc (MCF-7ras cells [2]; same effect as LS4 3.7 mM + NaPA 0.75 mM (51.4% inhibition)): 22 mM | NaPA Bc (MCF-7ras cells [2]; same effect as LS4 7.4 mM + NaPA 1.5 mM (54.8% inhibition)): 23 mM | NaPA Bc (MCF-7ras cells [2]; same effect as LS4 14.8 mM + NaPA 3 mM (55% inhibition)): 23.3 mM | NaPA Bc (MCF-7ras cells [2]; same effect as LS4 18.5 mM + NaPA 4 mM (60.2% inhibition)): 29.3 mM | NaPA Be (MCF-7ras cells [2]; same effect as LS17 1.53 mM + NaPA 0.5 mM (0% inhibition)): 0 mM | NaPA Be (MCF-7ras cells [2]; same effect as LS17 3 mM + NaPA 1 mM (16% inhibition)): 0.76 mM | NaPA Be (MCF-7ras cells [2]; same effect as LS17 6 mM + NaPA 2 mM (17.3% inhibition)): 0.83 mM | NaPA Be (MCF-7ras cells [2]; same effect as LS17 12 mM + NaPA 4 mM (17.3% inhibition)): 0.83 mM | effect on MCF-7 cells (MCF-7 cells [3]; concentrations less than 1 mM, MTT): does not appear to have a significant effect | concentration of free NaPA giving this same inhibition (MCF-7 cells [3]; same inhibition (40 to 50%) as the combination): 5 mM | inhibition of tumor cell growth (MCF-7ras tumors): 59% | IC50 (MCF-7 cells [4]; Homo sapiens, MCF7, 72 h, read-out: IC50 (minimum dose causing arrest of proliferation of 50% of cells)): 5 mM | inhibition of cell proliferation (MCF-7 cells [4]; concentrations greater than 30 mM, reflects cytotoxic effect): exceeds 100% | concentration of NaPA alone giving this inhibition (MCF-7 cells [4]; same inhibition as maximum effect of NaPAC MF6): 50 mM | mass of the tumors vs untreated mice ([5]; NaPA 6.9 mg/kg, end of treatment): no significant difference | effect on tumor growth (tumor volume) ([5]; NaPA 6.9 mg/kg/100 μl, twice a week, five weeks): does not appear to have a significant effect | inhibitory effect on HUVEC cell proliferation (HUVEC cells): do not appear to exhibit an inhibitory effect
